Tests used:
Homo sapiens [1] = experiment: Cmax in 2 to <6 months old infant assessed as penciclovir at 6.6 +/- 1.4 mg/kg, po single dose; format: ADME, organism-based; design: route oral; conditions: in vivo
Homo sapiens [2] = experiment: Tmax in 6 to 12 months old infant assessed as penciclovir at 6.6 +/- 1.4 mg/kg, po single dose; format: ADME, organism-based; design: route oral; conditions: in vivo
Homo sapiens [3] = experiment: Toxicity in 1 to 12 months old infant assessed as mild adverse events at 13.5 mg/kg, po single dose within 8 days; format: organism-based; design: dose 13.5 mg/kg, route oral; conditions: in vivo, 192 h
Homo sapiens [4] = experiment: Tmax in 1 to <3 months old infant assessed as penciclovir at 6.6 +/- 1.4 mg/kg, po single dose; format: ADME, organism-based; design: route oral; conditions: in vivo
Homo sapiens [5] = experiment: Toxicity in 1 to 12 months old infant assessed as severe adverse events at 13.5 mg/kg, po single dose within 8 days; format: organism-based; design: dose 13.5 mg/kg, route oral; conditions: in vivo, 192 h
Homo sapiens [6] = experiment: AUC (0 to 6 hrs) in 1 to <3 months old infant assessed as penciclovir at 6.6 +/- 1.4 mg/kg, po single dose; format: ADME, organism-based, Plasma; design: time < 6 hr, route oral; conditions: in vivo
Homo sapiens [7] = experiment: Toxicity in 1 to 12 months old infant assessed as moderate adverse events at 13.5 mg/kg, po single dose within 8 days; format: organism-based; design: dose 13.5 mg/kg, route oral; conditions: in vivo, 192 h
Homo sapiens [8] = experiment: AUC (0 to 6 hrs) in 6 to 12 months old infant assessed as penciclovir at 6.6 +/- 1.4 mg/kg, po single dose; format: ADME, organism-based, Plasma; design: time < 6 hr, route oral; conditions: in vivo
Homo sapiens [9] = experiment: Cmax in 6 to 12 months old infant assessed as penciclovir at 6.6 +/- 1.4 mg/kg, po single dose; format: ADME, organism-based; design: route oral; conditions: in vivo
Homo sapiens [10] = experiment: AUC (0 to 6 hrs) in 2 to <6 months old infant assessed as penciclovir at 6.6 +/- 1.4 mg/kg, po single dose; format: ADME, organism-based, Plasma; design: time < 6 hr, route oral; conditions: in vivo
Homo sapiens [11] = experiment: Tmax in 2 to <6 months old infant assessed as penciclovir at 6.6 +/- 1.4 mg/kg, po single dose; format: ADME, organism-based; design: route oral; conditions: in vivo
Homo sapiens [12] = experiment: Cmax in 1 to <3 months old infant assessed as penciclovir at 6.6 +/- 1.4 mg/kg, po single dose; format: ADME, organism-based; design: route oral; conditions: in vivo
Homo sapiens [13] = experiment: Toxicity in 1 to 12 months old infant assessed as adverse events at 13.5 mg/kg, po single dose within 8 days; format: organism-based; design: dose 13.5 mg/kg, route oral; conditions: in vivo, 192 h

CC(=O)OCC(CCn1cnc2cnc(N)nc21)COC(C)=O [FAMCICLOVIR]
Cmax (Homo sapiens [1]): 740 ng/mL | Tmax (Homo sapiens [2]): 1.02 h | Activity (Homo sapiens [3]): 16.7% | Tmax (Homo sapiens [4]): 1 h | Activity (Homo sapiens [5]): 5.6% | AUC (Homo sapiens [6]): 2110 ng·h/mL | Activity (Homo sapiens [7]): 22.2% | AUC (Homo sapiens [8]): 8770 ng·h/mL | Cmax (Homo sapiens [9]): 3240 ng/mL | AUC (Homo sapiens [10]): 3160 ng·h/mL | Tmax (Homo sapiens [11]): 4 h | Cmax (Homo sapiens [12]): 690 ng/mL | Activity (Homo sapiens [13]): 44.4%
